This passage reports EC50 results from patent US20110092582A1, “New Terpenes And Macrocycles” (MERCK PATENT GESELLSCHAFT, priority 2008, published 2011).

Molecules are shown by their SMILES.

The target in this assay is T1, human TGR5 (Homo sapiens, UniProt Q8TDU6).
T1 construct: expressed in transfected cells; host or cells: BHK cells
T1 sequence (Q8TDU6 1-330): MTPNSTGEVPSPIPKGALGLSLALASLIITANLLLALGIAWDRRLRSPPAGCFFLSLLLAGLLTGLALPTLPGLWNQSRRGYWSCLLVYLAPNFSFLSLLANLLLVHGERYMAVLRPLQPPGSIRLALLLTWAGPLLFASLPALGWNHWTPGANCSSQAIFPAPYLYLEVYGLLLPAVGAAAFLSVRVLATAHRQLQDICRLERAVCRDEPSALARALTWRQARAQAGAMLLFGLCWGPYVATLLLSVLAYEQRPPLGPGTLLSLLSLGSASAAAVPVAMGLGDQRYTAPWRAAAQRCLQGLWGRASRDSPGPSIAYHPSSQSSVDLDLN
The assay can be described thus: cAMP production in BHK cells expressing the human TGR5 (CisBio cAMP kit), normalized to LCA = 100%. Type of assay: cell-based. As to conditions: BHK cells expressing human TGR5, 30 minutes incubation. The protocol:
The activity of the natural products, with respect to their TGR5 activating capacities, was analyzed as follows:
BHK cells, expressing the human TGR5, were seeded into 384-well plates and grown overnight. The next day, natural test compounds (and LCA as positive control) were incubated on the cells for 30 minutes. As TGR5 couples to […] proteins, the increase of cellular cAMP production, as a measure for TGR5 activity, was analyzed by using a commercially available cAMP kit (CisBio international). The cAMP production was measured according to the kit manufacturer's protocol. Data were normalized by setting the cAMP production induced by LCA to 100% activity. EC50 values were determined by using the GraphPad PrismSoftware (Graph. Pad Software Inc.).

Where the note is “unit inferred”, `CCC(C)C1OC(=O)C(Cc2ccccc2)NC(=O)C(C)C/C(C)=C/C(C)C(O)/C(C)=C/C1C` (centres unmarked) [A4, (8E,12E)-3-benzyl-15-sec-butyl-11-hydroxy-6,8,10,12,14-pentamethyl-1-oxa-4-azacyclopentadeca-8,12-diene-2,5-dione] had an EC50 of 400 nM. That is a sub-micromolar value.

In the case of `C=CC1C(CO)=CCC2C1CCC1C(C)(C)C(=O)CCC21C` (centres unmarked) [A1, 17-hydroxy-12,15-cleistanthadiene-3-one], the EC50 was found to be 3000 nM.
